Measurements from US20190281845A1, “EDIBLE BIO-ACTIVE FILMS BASED ON CHITOSAN OR A MIXTURE OF QUINOA PROTEIN-CHITOSAN; SHEETS HAVING CHITOSAN-TRIPOLYPHOSPHATE-THYMOL NANOPARTICLES; PRODUCTION METHOD; BIO-PACKAGING COMPRISING SAME; AND USE THEREOF IN FRESH FRUIT WITH A LOW PH” (Universidad de Chile, priority 2016, published 2019).

Legend:
A. niger = details: Guarda et al., 2011; cited from earlier work
L. innocua = experiment: Minimum inhibitory concentration in liquid culture (serial dilutions, turbidity); format: cell-based, Listeria innocua ATCC 33090; details: 24 h
Experimental: (§1) To evaluate the antimicrobial capacity of the ink prepared from the NQoT dispersion, the minimum concentration that is able to inhibit the visible development of the bacterial strains S. aureus; E. coli; P. aeruginosa; S. typhimurium; E. aerogenes and L. innocua in a liquid culture medium (trypticase soy broth), after 24 h incubation, was determined. Bacterial strains were obtained from an isolated colony on a selective and differential agar plate for each genus, and were inoculated in nutritious broth for 24 h at 37° C. with stirring until obtaining a saturated culture. Then, the desired concentration of microorganisms was determined, in comparison with the standard of McFarland 0.5, and the corresponding dilutions were made in order to reach a concentration of 1×10^5 CFU/ml (colony-forming units/ml). To each culture tube, agents in serial dilutions were added, and incubated at 37° C. for 24 h; then, the lowest concentration of the mixture capable of inhibiting bacterial growth, given by absence of turbidity in the culture medium, was determined. The solutions used to generate the Nps and nanoparticles without T in their formulation (NQo) were used as controls. […]

B. cinerea = experiment: Minimum inhibitory concentration against the fungus; format: cell-based, Botrytis cinerea wt
S. aureus [1] = experiment: Minimum inhibitory concentration in liquid culture (serial dilutions, turbidity); format: cell-based, Staphylococcus aureus ATCC 25923; details: 24 h
Experimental: as §1

E. aerogenes = experiment: as above; format: cell-based, Enterobacter aerogenes ATCC 13048; details: 24 h
Experimental: as §1

S. typhimurium = experiment: as above; format: cell-based, Salmonella serovar Typhimurium ATCC 14028; details: S. Tiphymurium; 24 h
Experimental: as §1

B. cinerea mycelium = experiment: Inhibition of Botrytis cinerea mycelium (radial growth on agar); format: cell-based; details: for Radial mycelial growth area: 6 days at 25° C., untreated 8.5 cm^2
Experimental: The antifungal activity of the NQoT dispersion was evaluated by inhibiting the radial development in the fungus mycelial plate, described by Yildirim et al., (2007). For that purpose, a portion of mycelium was sterilely taken, using a punch, from a strain previously cultivated for 5 days at 25° C., which was placed in the center of a potato dextrose agar plate mixed with dilutions of the NQoT dispersion until obtaining in the agar concentrations of 0.44 mg/ml (dispersion diluted to 10% v/v), 1.1 mg/ml (dispersion diluted to 25% v/v) and 2.2 mg/ml (dispersion diluted to 50% v/v). These plates were incubated for 6 days at 25° C., being evaluated every 24 h. The antifungal activity was determined through the mycelium propagation area of the plates containing NQoT, and were compared with agar plates containing T solutions, mixture of QoLMW-T, and the NQo dispersion in the same dilutions, and a culture of the fungus seeded in a plate without treatment, whose propagation on the surface of the plate (8.5 cm2) is equivalent to a 100% development, which was used as a parameter of growth comparison.
On the other hand, the antifungal capacity of the NQoTs confronted to the vegetative form of Botrytis cinerea was tested, wherein the growth inhibition of this fungus' mycelium was assessed, adding diluted concentrations to the culture medium of the NQoT dispersion. The dilutions tested corresponded to 10%, 25% and 50% v/v, and were compared to T's solutions, QoLMW-T mixture, and NQo dispersion in the same dilutions.
It was observed, when the culture medium lacked the solutions or dispersions to be tested (viability control), that the fungus spread over the surface of the plate (8.5 cm^2), equivalent to 100% growth, which was used as a growth comparison parameter.

Listeria innocua = details: Guarda et al., 2011; cited from earlier work
E. coli [2] = experiment: Minimum inhibitory concentration in liquid culture (serial dilutions, turbidity); format: cell-based, Escherichia coli ATCC 25922; details: 24 h
Experimental: as §1

S. cereviciae = details: Guarda et al., 2011; cited from earlier work
E. coli [3] = details: Guarda et al., 2011; cited from earlier work
S. aureus [4] = details: Guarda et al., 2011; cited from earlier work
P. aeruginosa = experiment: Minimum inhibitory concentration in liquid culture (serial dilutions, turbidity); format: cell-based, Pseudomonas aeruginosa ATCC 27853; details: Ps. aeruginosa; 24 h
Experimental: as §1

[5] = agent diluted to 10% v/v in culture medium
[6] = agent diluted to 25% v/v in culture medium

Cc1ccc(C(C)C)c(O)c1 [thymol]
Minimum inhibitory concentration (MIC) (A. niger): 250 ppm
Minimum inhibitory concentration (L. innocua): 0.275 gL^−1
Minimum inhibitory concentration (B. cinerea): 0.550 gL^−1
Minimum inhibitory concentration (S. aureus [1]): 0.275 gL^−1
Minimum inhibitory concentration (E. aerogenes): 0.250 gL^−1
Minimum inhibitory concentration (S. typhimurium): 0.250 gL^−1
Inhibition of mycelial growth versus viability control (B. cinerea mycelium; [5]): 4.7%
Radial mycelial growth area (B. cinerea mycelium; [5]): 8.1±0.1 cm^2
Inhibition of mycelial growth versus viability control (B. cinerea mycelium; [6]): 20%
Radial mycelial growth area (B. cinerea mycelium; [6]): 6.8±0.8 cm^2
Minimum inhibitory concentration (MIC) (Listeria innocua): 250 ppm
Minimum inhibitory concentration (E. coli [2]): 0.250 gL^−1
Minimum inhibitory concentration (MIC) (S. cereviciae): 125 ppm
Minimum inhibitory concentration (MIC) (E. coli [3]): 250 ppm
Minimum inhibitory concentration (MIC) (S. aureus [4]): 250 ppm
Minimum inhibitory concentration (P. aeruginosa): 0.225 gL^−1
